Where two headings read alike, the source gives them in different places.
Key:
[1] = system: RXF 2282L; assay: 2D monolayer CellTiter-Blue viability, renal cancer RXF 2282L; type: cell-based; settings: for Test/Control (%) at Drug Concentration: 72 h
Method: Mebendazole was tested in vitro across a panel of 12 tumor cell lines of ovarian and renal cancer by using a 2D monolayer assay. […] OVXF 899L and RXF 486L are P-gp expressing, multidrug resistant cell lines.
Anti-tumor activity is expressed as absolute and relative IC50/70 values, calculated by 4-parameter non-linear curve fit.

[2] = in vitro; settings: human, hepatocytes, t½
Method: Mebendazole (1 μM) was incubated with cryopreserved human hepatocytes for 60 min in the absence and presence of cimetidine at 30, 100 and 300 μM) and thiabendazole at 10, 30 and 100 μM and samples taken at the required time points. The amount of test compound remaining at each time point was analysed by LC-MS/MS. Appropriate control compounds were also incubated along with ethoxycoumarin, which was incubated in the absence and presence of cimetidine and thiabendazole.
The final incubation volume was 500 μL. Two control compounds were included, alongside appropriate vehicle control. A positive control compound, ethoxycoumarin, for CYP1A2 was included. The positive control compound was incubated without inhibitor and in the presence of each inhibitor. The reactions were stopped by transferring 50 μL of incubate to 100 μL acetonitrile containing internal standard at the appropriate time points (0, 5, 10, 20, 40 and 60 min). The termination plates were centrifuged at 2500 rpm at 4° C. for 30 min to precipitate the protein.

[3] = system: SXFO 678; assay: 2D monolayer CellTiter-Blue viability, osteosarcoma SXFO 678; type: cell-based; settings: 72 h
Method: (§1) Seventeen compounds, including mebendazole (Batch no. […] Efficacy of compounds was assessed using CellTiter-Blue® Cell Viability Assay. Anti-tumor activity is expressed as absolute and relative IC50 and IC70 values, calculated by non-linear regression analysis.

[4] = system: SXFS A-204; assay: 2D monolayer CellTiter-Blue viability, soft tissue sarcoma A-204; type: cell-based; settings: 72 h
Method: as §1

[5] = system: SXFS Hs 729; assay: 2D monolayer CellTiter-Blue viability, soft tissue sarcoma Hs 729; type: cell-based; settings: 72 h
Method: as §1

[6] = system: NBXF IMR-32; assay: 2D monolayer CellTiter-Blue viability, neuroblastoma IMR-32; type: cell-based; settings: 72 h
Method: as §1

[7] = molecular target: T1, CYP1A2 (Homo sapiens, UniProt P05177); assay: Cytochrome P450 reaction phenotyping, recombinant CYP1A2 (Bactosomes); settings: for Compound Remaining (% of 0 min): CYP1A2, 5 μM
T1 sequence (P05177 1-516): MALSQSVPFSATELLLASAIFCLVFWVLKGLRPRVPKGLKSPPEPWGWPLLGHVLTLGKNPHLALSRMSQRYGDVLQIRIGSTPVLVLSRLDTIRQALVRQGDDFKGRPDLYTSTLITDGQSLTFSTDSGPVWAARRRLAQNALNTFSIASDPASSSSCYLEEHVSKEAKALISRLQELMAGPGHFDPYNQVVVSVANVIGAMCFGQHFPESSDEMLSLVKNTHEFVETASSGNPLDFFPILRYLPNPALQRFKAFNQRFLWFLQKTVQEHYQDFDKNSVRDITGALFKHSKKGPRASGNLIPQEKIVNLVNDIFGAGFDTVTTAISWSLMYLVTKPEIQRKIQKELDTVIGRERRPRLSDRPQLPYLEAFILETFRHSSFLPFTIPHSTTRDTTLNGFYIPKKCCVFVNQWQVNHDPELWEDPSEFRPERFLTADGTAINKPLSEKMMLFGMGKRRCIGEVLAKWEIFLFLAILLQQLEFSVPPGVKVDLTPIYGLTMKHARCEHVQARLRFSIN
Method: Incubations were also performed using control Bactosomes™ (no P450 enzymes present) to reveal any non-enzymatic degradation. Control compounds known to be metabolised specifically by each P450 isoform were included. All incubations were performed singularly for each test compound.
Incubations were also performed using control Bactosomes™ (no P450 enzymes present) to reveal any non-enzymatic degradation. Control compounds known to be metabolised specifically by each P450 isoform were included. All incubations were performed singularly for each test compound. […] The reactions were stopped by transferring an aliquot of incubate to quench solvent at the appropriate time points, in a 1:3 ratio. The termination plates were centrifuged at 3,000 rpm for 20 min at 4° C. to precipitate the protein.

[8] = in vitro; settings: human, cryopreserved hepatocytes (suspension)
Method: The amount of test compound remaining at each time point was analysed by LC-MS/MS. Appropriate control compounds were also incubated.
The final incubation volume was 500 μL. Appropriate control compounds were included, alongside appropriate vehicle control.
The reactions were stopped by transferring 50 μL of incubate to 100 μL acetonitrile containing internal standard at the appropriate time points (0, 5, 10, 20, 40 and 60 min). The termination plates were centrifuged at 2500 rpm at 4° C. for 30 min to precipitate the protein.

Structure (SMILES): COC(=O)Nc1nc2ccc(C(=O)c3ccccc3)cc2[nH]1 [Mebendazole, methyl N-(6-benzoyl-1H-benzimidazol-2-yl)carbamate]
- Test/Control (%) at Drug Concentration ([1]; RXF 2282, 1.0E+00 μM): 71%
- Test/Control (%) at Drug Concentration ([1]; RXF 2282, 1.0E−01 μM): 83%
- Test/Control (%) at Drug Concentration ([1]; RXF 2282, 1.0E−02 μM): 84%
- Test/Control (%) at Drug Concentration ([1]; RXF 2282, 1.0E−03 μM): 88%
- Test/Control (%) at Drug Concentration ([1]; RXF 2282, 1.0E−04 μM): 108%
- Test/Control (%) at Drug Concentration ([1]; RXF 2282, 3.2E+00 μM): 57%
- Test/Control (%) at Drug Concentration ([1]; RXF 2282, 3.2E−01 μM): 77%
- Test/Control (%) at Drug Concentration ([1]; RXF 2282, 3.2E−02 μM): 86%
- Test/Control (%) at Drug Concentration ([1]; RXF 2282, 3.2E−03 μM): 89%
- Test/Control (%) at Drug Concentration ([1]; RXF 2282, 3.2E−04 μM): 92%
- Abs. IC70 ([1]; RXF 2282, 72 h): >3.200 µM
- Rel. IC70 ([1]; RXF 2282, 72 h): >3.200 µM
- Bot. (%) ([1]; RXF 2282, 72 h, curve fit): 0%
- Top (%) ([1]; RXF 2282, 72 h, curve fit): 102%
- IC50 ([1]; RXF 2282, 72 h, read-out: Abs. IC50): > 3.2 µM
- IC50 ([1]; RXF 2282, 72 h, read-out: Rel. IC50): > 3.2 µM
- half-life at 1 μM [2]: 92.4 min
- Test/Control (%) at Drug Concentration ([3]; SXFO 678, 1.0E+00 μM): 11%
- Test/Control (%) at Drug Concentration ([3]; SXFO 678, 1.0E+01 μM): 28%
- Test/Control (%) at Drug Concentration ([3]; SXFO 678, 1.0E+02 μM): 11%
- Test/Control (%) at Drug Concentration ([3]; SXFO 678, 1.0E−01 μM): 64%
- Test/Control (%) at Drug Concentration ([3]; SXFO 678, 1.0E−02 μM): 87%
- Test/Control (%) at Drug Concentration ([3]; SXFO 678, 3.2E+00 μM): 22%
- Test/Control (%) at Drug Concentration ([3]; SXFO 678, 3.2E+01 μM): 21%
- Test/Control (%) at Drug Concentration ([3]; SXFO 678, 3.2E−01 μM): 14%
- Test/Control (%) at Drug Concentration ([3]; SXFO 678, 3.2E−02 μM): 88%
- Test/Control (%) at Drug Concentration ([3]; SXFO 678, 3.2E−03 μM): 90%
- Test/Control (%) at Drug Concentration ([4]; A-204, 1.0E+00 μM): 45%
- Test/Control (%) at Drug Concentration ([4]; A-204, 1.0E+01 μM): 28%
- Test/Control (%) at Drug Concentration ([4]; A-204, 1.0E+02 μM): 10%
- Test/Control (%) at Drug Concentration ([4]; A-204, 1.0E−01 μM): 79%
- Test/Control (%) at Drug Concentration ([4]; A-204, 1.0E−02 μM): 96%
- Test/Control (%) at Drug Concentration ([4]; A-204, 3.2E+00 μM): 35%
- Test/Control (%) at Drug Concentration ([4]; A-204, 3.2E+01 μM): 20%
- Test/Control (%) at Drug Concentration ([4]; A-204, 3.2E−01 μM): 60%
- Test/Control (%) at Drug Concentration ([4]; A-204, 3.2E−02 μM): 83%
- Test/Control (%) at Drug Concentration ([4]; A-204, 3.2E−03 μM): 114%
- Test/Control (%) at Drug Concentration ([5]; Hs 729, 1.0E+00 μM): 65%
- Test/Control (%) at Drug Concentration ([5]; Hs 729, 1.0E+01 μM): 44%
- Test/Control (%) at Drug Concentration ([5]; Hs 729, 1.0E+02 μM): 12%
- Test/Control (%) at Drug Concentration ([5]; Hs 729, 1.0E−01 μM): 90%
- Test/Control (%) at Drug Concentration ([5]; Hs 729, 1.0E−02 μM): 91%
- Test/Control (%) at Drug Concentration ([5]; Hs 729, 3.2E+00 μM): 56%
- Test/Control (%) at Drug Concentration ([5]; Hs 729, 3.2E+01 μM): 35%
- Test/Control (%) at Drug Concentration ([5]; Hs 729, 3.2E−01 μM): 84%
- Test/Control (%) at Drug Concentration ([5]; Hs 729, 3.2E−02 μM): 89%
- Test/Control (%) at Drug Concentration ([5]; Hs 729, 3.2E−03 μM): 93%
- Test/Control (%) at Drug Concentration ([6]; IMR-32, 1.0E+00 μM): 1%
- Test/Control (%) at Drug Concentration ([6]; IMR-32, 1.0E+01 μM): 0%
- Test/Control (%) at Drug Concentration ([6]; IMR-32, 1.0E+02 μM): −2%
- Test/Control (%) at Drug Concentration ([6]; IMR-32, 1.0E−01 μM): 81%
- Test/Control (%) at Drug Concentration ([6]; IMR-32, 1.0E−02 μM): 95%
- Test/Control (%) at Drug Concentration ([6]; IMR-32, 3.2E+00 μM): 1%
- Test/Control (%) at Drug Concentration ([6]; IMR-32, 3.2E+01 μM): −1%
- Test/Control (%) at Drug Concentration ([6]; IMR-32, 3.2E−01 μM): 10%
- Test/Control (%) at Drug Concentration ([6]; IMR-32, 3.2E−02 μM): 94%
- Test/Control (%) at Drug Concentration ([6]; IMR-32, 3.2E−03 μM): 97%
- Compound Remaining (% of 0 min) ([7]; 0 min): 100 % of 0 min
- Compound Remaining (% of 0 min) ([7]; 5 min): 80.1 % of 0 min
- Compound Remaining (% of 0 min) ([7]; 15 min): 45.8 % of 0 min
- Compound Remaining (% of 0 min) ([7]; 30 min): 20.7 % of 0 min
- Compound Remaining (% of 0 min) ([7]; 45 min): 9.88 % of 0 min
- half-life at 5 μM ([7]; human, recombinant CYP1A2 (Bactosomes), pH 7.4): 13.3 min
- half-life at 1 μM [8]: 91.4 min
- hepatocyte CLint at 1 µM [8]: 15.2 µL/min/1e6 cells
- half-life at 1 μM ([8]; with fluvoxamine 10 μM): 1840 min
- hepatocyte CLint at 1 µM ([8]; with fluvoxamine 10 μM): 0.751 µL/min/1e6 cells
- half-life at 1 μM ([8]; with fluvoxamine 300 μM): 225 min
- hepatocyte CLint at 1 µM ([8]; with fluvoxamine 300 μM): 6.16 ± 1.7 µL/min/1e6 cells
- half-life at 1 μM ([8]; with mexiletine 10 μM): 136 min
- half-life at 1 μM ([8]; with mexiletine 30 μM): 713 min
- half-life at 1 μM ([8]; with mexiletine 100 μM): 317 min
- half-life at 1 μM ([8]; with mexiletine 300 μM): 666 min
- hepatocyte CLint at 1 µM ([8]; with mexiletine 300 μM): 2.08 ± 1.8 µL/min/1e6 cells
